Experimental findings from patent US10391115B2, “Anticancer adjuvant composition containing RIP3 expression promoter as active ingredient, method for screening for anticancer adjuvant enhancing sensitivity of anticancer drug by promoting RIP3 expression, and method for monitoring sensitivity of anticancer drug” (AJOU UNIVERSITY INDUSTRY-ACADEMIC COOPERATION FOUNDATION, priority 2014, dated 2019) are described below.

The test system of one assay is T47D breast cancer cells. The experiment in a line: Viability assay (MTT) of RIP3-silenced T47D cells with anticancer drugs. The format is cell-based, human. The settings on record: 48 hours; for anticancer drug resistance (MTT assay): RIP3-knocked down T47D test group vs control group; for cell killing (MTT assay): control group T47D. How it is done: In order to examine whether RIP3 also has an effect on breast cancer cells, RIP3-expressing T47D cells were used. First, the cells were infected with RIP3 in the same manner as described in Example 6.
In order to examine whether RIP3 increases anticancer drug sensitivity in T47D breast cancer cells, an MTT assay was performed. A control group and a RIP3-knocked down test group were incubated with doxorubicin, etoposide and taxol at the concentrations shown in FIG. 11 (right) for 48 hours.
(Formazan colour is commonly taken as a measure of viable cells.)

Assay [1] has as its system RIP3 expression in cancer cell lines (HeLa, MDA-MB231, BT549). The experiment in a line: RIP3 expression by demethylating agent 5-AD, Western blotting. The format is cell-based. As to conditions: MDA-MB231, BT549 that express no RIP3, 5-AD 2 uM, treated two times for 4 days. The procedure:
(§1) Cells were lysed in M2 buffer. Equal amounts of cell extracts were analyzed by SDS-PAGE and immunoblotting, and blots were visualized by enhanced chemiluminescence (ECL, Amersham).
(A western blot detects proteins with antibodies after separation by electrophoresis.)

In assay [2] the test system is HeLa cell line (non-target / shRIP3). The experiment in a line: Sensitization by 5-AD plus anticancer drug in non-target and shRIP3 HeLa cell lines (immunoblotting, MTT assay). The format is cell-based, human. The procedure: A MISSION short-hairpin RNA (shRNA) plasmid that targets the coding region or 3′ UTR of hRIP3 mRNA (NM_006871) or a non-target control sequence (NM-027088) were obtained from Sigma-Aldrich. A Lentivirus plasmid was transfected into 293T cells (System Biosciences, LV900A-1) using Lipofectamine 2000 (Invitrogen, 11668019). Pseudoviral particles were collected at 2 days after transfection of the Lentivirus plasmid and infected into various cancer cells in the presence of polybrene (10 μg/mL). At 2 days after infection, infected cells were selected with puromycin, and RIP3 knockdown was confirmed by immunoblotting. Cells without endogenous RIP3 were afterwards treated with 5-AD for 4 days and analyzed by immunoblotting.
Unlike a non-target cell line, in the case of a shRIP3 cell line, RIP3 expression in the cell line was inhibited by shRNA, even though the cell line was treated with 5-AD. Thus, the effect of RIP3 on sensitization of the cell line by a combined treatment with the anticancer drug and the demethylating agent could be confirmed. […] In addition, after the same number of cells seeded, the sensitization effect by the combined treatment with the anticancer drug was analyzed using a cell viability assay (MTT assay) (FIG. 6).
Because the demethylating agent (5-AD or 5-AZA) is not a specific drug for a certain protein, it may cause expression of various proteins in addition to RIP3.

For a further assay, the system named is HeLa cell lines. The experiment in a line: Sensitization of cancer cell death by combined treatment with demethylating agent and anticancer drug. As to conditions: pretreated two times for 4 days to induce RIP3 expression, then anticancer drug.
Assay [3] has as its system RIP3 expression in DLD-1 colorectal cancer cell line. The experiment in a line: RIP3 expression by demethylating agent 5-AZA, Western blotting. As to conditions: DLD-1 not expressing RIP3; various concentrations of 5-AZA, treated two times for 4 days. The format is cell-based. How it is done: as §1
In a further assay the test system is HT-29 cells. The experiment in a line: Viability assay (MTT) of RIP3-silenced HT-29 cells with anticancer drugs. The format is cell-based, human. As to conditions: doxorubicin 2.5 and 5 uM, etoposide 50 and 100 uM, 48 hours. The procedure: HT-29 cells (American Tissue Culture Collection) were cultured in a 37° C. incubator using DMEM medium supplemented with penicillin-streptomycin (10 IU/ml) and 10% FBS. The shRNAi double strand used in the present invention was commercially synthesized by Sigma-Aldrich. The shRNA used in the present invention was designed so as to target the coding region of a human RIPK3 mRNA sequence (NCBI Reference sequence NM_006871).
First, cultured HT-29 cells were dispensed in a 35-mm dish at a density of 2×10^5 cells. On the next day, the cells were infected with shRNA particles together with polybrene (10 ug/ml) according to the protocol's instruction.
In the present invention, in order to examine whether the RIP3 gene is associated with anticancer drug sensitivity, HT-29 cells infected with RIP3 shRNA were treated with varying concentrations of doxorubicin and etoposide, and then the cell viability of the cancer cells was measured. Particularly, HT-29 cells infected with RIP3 shRNA were treated with 2.5 uM and 5 uM of doxorubicin and 50 uM and 100 uM of etoposide, and then incubated for 48 hours. After the medium was replaced with a fresh medium containing 0.1 mg of MTT (3-([4,5-dimethylthiazol-2-yl]-2,5-diphenyltetrazolium bromide), the cells were further incubated for 2 hours. Colorimetric analysis was performed on a precipitate obtained by reducing a tetrazolium salt, in which viable cells is dissolved, into purple formazan crystal. Next, the medium was removed, and the produced formazan crystal was dissolved in 500 ul of DMSO, and the absorbance was measured using an ELISA reader at 570 nm. Cell viability was expressed as a percentage relative to the control taken as 100% viability.

The mark [4] stands for this setting: RIP3 knocked down with shRNA HT-29.
Where [5] appears, read: control group (non-target shRNA) HT-29.

For the compound `CC(=O)O[C@H]1C(=O)[C@@]2(C)[C@H]([C@H](OC(=O)c3ccccc3)[C@]3(O)C[C@H](OC(=O)[C@H](O)[C@@H](NC(=O)c4ccccc4)c4ccccc4)C(C)=C1C3(C)C)[C@]1(OC(C)=O)CO[C@@H]1C[C@@H]2O` [taxol], in the assay with T47D breast cancer cells, the “anticancer drug resistance (MTT assay)” value is listed as “significantly increased compared to that of the control group” and the “cell killing (MTT assay)” value was “killed dependently on the concentration”.

`Nc1ncn([C@H]2C[C@H](O)[C@@H](CO)O2)c(=O)n1` [5-AD, 5-aza-2′-deoxycytidine]: in assay [1], the “RIP3 expression (Western blotting)” value was “RIP3 expression was induced”. The “sensitization of cancer cell death by combined treatment with anticancer drug” value in assay [2] (non-target HeLa cell line, 5-AD treated two times for 4 days) is “showed the effect of sensitizing the cancer cell death by RIP3 expression”. Also, the “sensitization of cancer cell death by combined treatment with anticancer drug (cell viability assay)” value in assay [2] (shRIP3 HeLa cell line that expresses no RIP3) was “the sensitization effect was inhibited”. Also, the “RIP3 expression after 5-AD treatment” value in assay [2] (shRIP3 HeLa cell line, 5-AD treated two times for 4 days) is recorded as “RIP3 was not expressed”. Moreover, in the assay with HeLa cell lines, the “sensitization to cell death by anticancer drug after demethylating agent pretreatment” value is recorded as “sensitized to anticancer drug”.

As for `Nc1ncn([C@@H]2O[C@H](CO)[C@@H](O)[C@H]2O)c(=O)n1` [5-AZA, 5-azacytidine], the “RIP3 expression (Western blotting)” value in assay [3] is recorded as “RIP3 expression was induced”. Further, in the assay with HeLa cell lines, the “sensitization to cell death by anticancer drug after demethylating agent pretreatment” value is recorded as “the effect of sensitizing the cancer cell line to cell death was obtained”.

Turning to `COc1cc([C@@H]2c3cc4c(cc3[C@@H](O[C@@H]3O[C@@H]5CO[C@@H](C)O[C@H]5[C@H](O)[C@H]3O)[C@H]3COC(=O)[C@H]23)OCO4)cc(OC)c1O` [etoposide], the figures for the “cell viability (MTT)” value in the assay with HT-29 cells (setting [4]) and in the assay on HT-29 cells (setting [5]) were “the cell viability increased compared to that of the control group” and “the cell viability decreased dependently on the concentration”, respectively. The “anticancer drug resistance (MTT assay)” value in the assay with T47D breast cancer cells is “significantly increased compared to that of the control group”. Besides, the “cell killing (MTT assay)” value with T47D breast cancer cells is recorded as “killed dependently on the concentration”.

With `COc1cccc2c1C(=O)c1c(O)c3c(c(O)c1C2=O)C[C@@](O)(C(=O)CO)C[C@@H]3O[C@H]1C[C@H](N)[C@H](O)[C@H](C)O1` [doxorubicin], the “cell viability (MTT)” value in the assay with HT-29 cells (setting [4]) is listed as “the cell viability increased compared to that of the control group”. The “cell viability (MTT)” value with HT-29 cells (setting [5]) is “the cell viability decreased dependently on the concentration”. In the assay with T47D breast cancer cells, the “anticancer drug resistance (MTT assay)” value is given as “significantly increased compared to that of the control group” and the “cell killing (MTT assay)” value is “killed dependently on the concentration”.
